The target in experiment [1] is Epidermal growth factor receptor [L858R,T790M,C797S] (Homo sapiens, UniProt P00533, C797S/L858R/T790M). Briefly: Not found.
Excerpt: Not found

In experiment [2] the target is Epidermal growth factor receptor (Homo sapiens, UniProt P00533). Briefly: Not found.
Excerpt: Not found

In general, IC50 refers to the concentration that inhibits the measured activity by half.

Sequence of Epidermal growth factor receptor (P00533 whole entry): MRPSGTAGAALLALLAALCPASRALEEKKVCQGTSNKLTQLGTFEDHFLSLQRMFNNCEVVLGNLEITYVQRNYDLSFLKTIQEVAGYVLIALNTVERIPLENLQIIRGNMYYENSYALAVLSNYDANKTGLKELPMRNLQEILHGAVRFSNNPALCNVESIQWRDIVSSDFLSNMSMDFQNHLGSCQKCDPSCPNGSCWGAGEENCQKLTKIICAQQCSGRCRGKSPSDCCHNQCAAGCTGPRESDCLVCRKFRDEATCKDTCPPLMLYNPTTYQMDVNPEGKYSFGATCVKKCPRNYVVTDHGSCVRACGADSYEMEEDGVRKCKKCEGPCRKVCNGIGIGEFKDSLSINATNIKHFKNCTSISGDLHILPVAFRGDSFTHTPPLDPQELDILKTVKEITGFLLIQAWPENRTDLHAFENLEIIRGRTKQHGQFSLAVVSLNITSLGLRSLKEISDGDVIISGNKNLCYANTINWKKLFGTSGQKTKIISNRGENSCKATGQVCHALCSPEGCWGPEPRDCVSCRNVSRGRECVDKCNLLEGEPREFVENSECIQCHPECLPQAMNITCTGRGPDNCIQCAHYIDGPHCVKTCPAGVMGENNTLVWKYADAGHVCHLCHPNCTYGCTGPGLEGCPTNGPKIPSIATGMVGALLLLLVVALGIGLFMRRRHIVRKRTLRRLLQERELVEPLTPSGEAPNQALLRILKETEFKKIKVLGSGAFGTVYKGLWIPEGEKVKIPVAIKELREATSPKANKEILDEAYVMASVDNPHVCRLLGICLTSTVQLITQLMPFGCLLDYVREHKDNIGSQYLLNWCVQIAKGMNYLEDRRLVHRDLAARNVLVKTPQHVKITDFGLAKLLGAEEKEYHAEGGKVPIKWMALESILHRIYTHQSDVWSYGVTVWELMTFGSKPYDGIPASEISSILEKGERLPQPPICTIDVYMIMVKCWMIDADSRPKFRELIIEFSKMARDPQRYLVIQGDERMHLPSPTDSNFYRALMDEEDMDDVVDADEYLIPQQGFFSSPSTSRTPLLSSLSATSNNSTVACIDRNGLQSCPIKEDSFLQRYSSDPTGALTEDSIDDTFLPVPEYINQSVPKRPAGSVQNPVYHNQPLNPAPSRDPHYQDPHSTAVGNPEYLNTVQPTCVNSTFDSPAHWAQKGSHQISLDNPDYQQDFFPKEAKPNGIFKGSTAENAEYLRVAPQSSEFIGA
Sequence of Epidermal growth factor receptor [L858R,T790M,C797S] (P00533 25-1210 T790M/C797S/L858R limits assumed): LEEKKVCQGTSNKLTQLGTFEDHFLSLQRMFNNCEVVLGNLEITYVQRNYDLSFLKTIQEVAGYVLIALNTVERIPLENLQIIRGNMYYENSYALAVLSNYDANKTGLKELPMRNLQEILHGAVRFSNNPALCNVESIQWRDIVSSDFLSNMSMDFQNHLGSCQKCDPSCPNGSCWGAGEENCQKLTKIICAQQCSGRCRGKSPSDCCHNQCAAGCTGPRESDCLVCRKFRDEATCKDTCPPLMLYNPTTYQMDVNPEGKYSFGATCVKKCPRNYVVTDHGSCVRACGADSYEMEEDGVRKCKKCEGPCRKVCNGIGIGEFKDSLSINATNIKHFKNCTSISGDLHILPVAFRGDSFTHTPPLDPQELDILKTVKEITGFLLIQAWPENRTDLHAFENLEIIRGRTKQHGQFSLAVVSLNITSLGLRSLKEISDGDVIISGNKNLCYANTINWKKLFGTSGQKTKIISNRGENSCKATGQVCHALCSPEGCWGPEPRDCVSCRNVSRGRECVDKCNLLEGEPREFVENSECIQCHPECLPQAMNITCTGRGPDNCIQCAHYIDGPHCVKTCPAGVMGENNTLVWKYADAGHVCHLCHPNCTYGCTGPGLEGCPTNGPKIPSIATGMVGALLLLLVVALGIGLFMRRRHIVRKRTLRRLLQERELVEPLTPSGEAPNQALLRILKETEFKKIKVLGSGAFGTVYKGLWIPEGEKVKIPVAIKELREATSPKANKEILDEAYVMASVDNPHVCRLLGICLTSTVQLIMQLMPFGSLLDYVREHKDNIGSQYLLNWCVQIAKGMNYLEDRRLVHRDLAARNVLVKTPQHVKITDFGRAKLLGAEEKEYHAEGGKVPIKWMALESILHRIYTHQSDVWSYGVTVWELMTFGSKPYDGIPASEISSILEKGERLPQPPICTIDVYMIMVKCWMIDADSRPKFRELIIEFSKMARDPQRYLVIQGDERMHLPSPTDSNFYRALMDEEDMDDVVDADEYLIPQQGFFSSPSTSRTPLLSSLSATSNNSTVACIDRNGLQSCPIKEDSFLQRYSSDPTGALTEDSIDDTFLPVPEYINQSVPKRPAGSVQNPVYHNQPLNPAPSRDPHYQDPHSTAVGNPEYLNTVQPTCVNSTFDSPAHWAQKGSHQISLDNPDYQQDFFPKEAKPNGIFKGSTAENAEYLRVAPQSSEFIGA

`COc1cc2c(cc1Nc1ncc(Br)c(Nc3ccc4nccnc4c3P(C)(C)=O)n1)-c1cnn(C)c1CCN2C` [US20240034743, Compound 1] yielded an IC50 in experiment [1] of under 1 nM. Consider `COc1cc2c(cc1Nc1ncc(Br)c(Nc3ccc4nccnc4c3P(C)(C)=O)n1)-c1cnn(C)c1CN(C)C2=O` [US20240034743, Compound 9], for which, in experiment [1], the half-maximal inhibitory concentration (IC50) was under 1 nM.

In the case of `COc1cc2c(cc1Nc1ncc(Cl)c(Nc3ccc4nccnc4c3P(C)(C)=O)n1)-c1cnn(C)c1CCN2C` [US20240034743, Compound 13], the IC50 in experiment [2] was under 1 nM.

Molecule `COc1cc2c(cc1Nc1ncc(Br)c(Nc3ccc4nccnc4c3P(C)(C)=O)n1)-c1cnn(C)c1CCN2C(C)=O` [US20240034743, Compound 15] returned an IC50 in experiment [1] of under 1 nM. For `COc1cc2c(cc1Nc1ncc(C(F)(F)F)c(Nc3ccccc3P(C)(C)=O)n1)-c1cnn(C)c1CCN2C` [US20240034743, Compound 26], in experiment [1], the IC50 is under 1 nM. The molecule `COc1cc2c(cc1Nc1ncc(Br)c(Nc3ccccc3P(C)(C)=O)n1)-c1ccnn1CCN2C` [US20240034743, Compound 29] came in with an IC50 in experiment [1] of under 1 nM. `COc1cc2c(cc1Nc1ncc(Br)c(Nc3ccccc3NS(C)(=O)=O)n1)-c1cnn(C)c1CCN2C` [US20240034743, Compound 32] had an IC50 in experiment [1] of under 1 nM.

In experiment [1], `COc1cc2c(cc1Nc1ncc(Br)c(Nc3ccccc3P(C)(C)=O)n1)-c1cnn(C)c1CCC2` [US20240034743, Compound 38] had an IC50 of under 1 nM.

`CCn1ncc2c1CCN(C)c1cc(OC)c(Nc3ncc(Br)c(Nc4ccccc4P(C)(C)=O)n3)cc1-2` [US20240034743, Compound 39] yielded an IC50 in experiment [1] of under 1 nM. Molecule `COc1cc2c(cc1Nc1ncc(Br)c(Nc3ccccc3P(C)(C)=O)n1)-c1cnn(C)c1CC=C2` [US20240034743, Compound 40] registered an IC50 in experiment [1] of under 1 nM. `COc1cc2c(cc1Nc1ncc(Br)c(Nc3ccccc3P(C)(C)=O)n1)-c1cnn(C)c1COC2` [US20240034743, Compound 46]: the IC50 in experiment [1] was under 1 nM. `COc1cc2c(cc1Nc1ncc(Br)c(Nc3ccccc3P(C)(C)=O)n1)-c1cnnn1CCN2C` [US20240034743, Compound 48] returned an IC50 in experiment [1] of under 1 nM. With `COc1cc2c(cc1Nc1ncc(Br)c(Nc3ccccc3P(C)(C)=O)n1)-c1cnn(C)c1CNC2` [US20240034743, Compound 49], the IC50 in experiment [1] was under 1 nM.

For the molecule `COc1cc2c(cc1Nc1ncc(Br)c(Nc3ccccc3P(C)(C)=O)n1)-c1cnn(C)c1CCC2N` (stereo not given) [US20240034743, Compound 50], in experiment [1], the IC50 was under 1 nM.

On to `COc1nc2c(cc1Nc1ncc(Br)c(Nc3ccccc3P(C)(C)=O)n1)-c1cnn(C)c1CCN2` [US20240034743, Compound 51], for which the IC50 in experiment [1] is under 1 nM.

On to `COc1cc2c(cc1Nc1ncc(Br)c(Nc3ccccc3P(C)(C)=O)n1)-c1cnc(C)n1CCN2C` [US20240034743, Compound 55], for which the IC50 in experiment [1] was under 1 nM. In experiment [1], `COc1cc2c(cc1Nc1nc(Nc3ccccc3P(C)(C)=O)c3sccc3n1)-c1cnn(C)c1CCN2C` [US20240034743, Compound 58] showed an IC50 of under 1 nM. Take `COc1cc2c(cc1Nc1ncc(Br)c(Nc3ccccc3P(C)(C)=O)n1)-c1cnn(C)c1CCN2C1CN(C)C1` [US20240034743, Compound 59]: in experiment [2], the IC50 was under 1 nM. Regarding `COc1cc2c(cc1Nc1ncc(Br)c(Nc3ccc4nccnc4c3P(C)(C)=O)n1)-c1cnn(C)c1CCN2C1CCN(C)CC1` [US20240034743, Compound 62], the IC50 in experiment [1] was under 1 nM. Regarding `COc1cc2c(cc1Nc1ncc(Br)c(Nc3ccc4nccnc4c3P(C)(C)=O)n1)-c1cnn(C)c1CCN2C1CN(C(C)C)C1` [US20240034743, Compound 63], the IC50 in experiment [2] was under 1 nM. Take `COc1cc2c(cc1Nc1ncc(Br)c(Nc3ccccc3P(C)(C)=O)n1)-c1cnn(C)c1CCN2C1COC1` [US20240034743, Compound 64]: in experiment [1], the IC50 is under 1 nM. Turning to `COc1cc2c(cc1Nc1ncc(Br)c(Nc3ccccc3P(C)(C)=O)n1)-c1cnn(C)c1CCN2C1CN(CCF)C1` [US20240034743, Compound 69], the IC50 in experiment [1] is under 1 nM. In experiment [2], `COc1cc2c(cc1Nc1ncc(Br)c(Nc3ccc4nccnc4c3P(C)(C)=O)n1)-c1cnn(C)c1CCN2C1CN(CC2CC2)C1` [US20240034743, Compound 70] showed an IC50 of under 1 nM. For the molecule `COc1cc2c(cc1Nc1ncc(Br)c(Nc3ccccc3P(C)(C)=O)n1)-c1cnn(C)c1CCN2CC(F)(F)F` [US20240034743, Compound 73], in experiment [1], the IC50 is under 1 nM. For the molecule `COc1cc2c(cc1Nc1ncc(Br)c(Nc3ccc4nccnc4c3P(C)(C)=O)n1)-c1cnn(C)c1CCN2C1CC1` [US20240034743, Compound 74], the IC50 in experiment [2] was under 1 nM. Regarding `COc1cc2c(cc1Nc1ncc(Br)c(Nc3ccc4nccnc4c3P(C)(C)=S)n1)-c1cnn(C)c1CCN2C1CCN(C)CC1` [US20240034743, Compound 76], in experiment [1], the IC50 is under 1 nM.

For `COc1nc2c(cc1Nc1ncc(Br)c(Nc3ccccc3P(C)(C)=O)n1)-c1cnn(C)c1CCN2C` [US20240034743, Compound 79], the IC50 in experiment [1] was under 1 nM. The same measure, in the same setting: the same measure for `COc1cc2c(cc1Nc1ncc(Br)c(Nc3ccc4nccnc4c3P(C)(C)=O)n1)-c1cnn(C)c1CCN2C1CCCN(C)C1` (stereo not given) [US20240034743, Compound 84]: under 1 nM. The molecule `COc1cc2c(cc1Nc1ncc(C)c(Nc3ccc4nccnc4c3P(C)(C)=O)n1)-c1cnn(C)c1CCN2C(C)C` [US20240034743, Compound 85] displayed an IC50 in experiment [2] of under 1 nM.

On to `COc1cc2c(cc1Nc1ncc(Br)c(Nc3ccc4nccnc4c3P(C)(C)=O)n1)-c1cnn(C)c1CCN2C1CCOCC1` [US20240034743, Compound 88], for which, in experiment [1], the IC50 was under 1 nM.

Regarding `COc1cc2c(cc1Nc1ncc(Br)c(Nc3ccc4nccnc4c3P(C)(C)=O)n1)-c1cnn(C)c1CCN2C1CC2(C1)CN(C)C2` [US20240034743, Compound 89], in experiment [2], the IC50 was under 1 nM. `COc1cc2c(cc1Nc1ncc(Br)c(Nc3ccc4nccnc4c3P(C)(C)=O)n1)-c1cnn(C)c1CCN2C1CC2(C1)CN(C(C)C)C2` [US20240034743, Compound 90] gave an IC50 in experiment [1] of under 1 nM. `COc1cc2c(cc1Nc1ncc(Br)c(Nc3ccc4nccnc4c3P(C)(C)=S)n1)-c1cnn(C)c1CCN2C1CC2(C1)CN(C)C2` [US20240034743, Compound 93] gave an IC50 in experiment [2] of under 1 nM. `COc1cc2c(cc1Nc1ncc(Br)c(Nc3ccc4nccnc4c3NS(C)(=O)=O)n1)-c1cnn(C)c1CCN2` [US20240034743, Compound 114] came in with an IC50 in experiment [2] of under 1 nM. As to `COc1cc2c(cc1Nc1ncc(Br)c(Nc3ccc4nccnc4c3C(N)=O)n1)-c1cnn(C)c1CCN2C(C)C` [US20240034743, Compound 115], the IC50 in experiment [2] is over 1000 nM. In the case of `COc1cc2c(cc1Nc1ncc(Br)c(Nc3ccccc3N(C(C)C)S(C)(=O)=O)n1)-c1cnn(C)c1CCN2C(C)C` [US20240034743, Compound 124], the IC50 in experiment [1] was over 1000 nM.

Consider `CNS(=O)(=O)c1ccccc1Nc1nc(Nc2cc3c(cc2OC)N(C(C)C)CCc2c-3cnn2C)ncc1Br` [US20240034743, Compound 127], for which the IC50 in experiment [1] was over 1000 nM.

In experiment [1], `COc1cc2c(cc1Nc1ncc(Br)c(Nc3cccc4c3NS(=O)(=O)C4)n1)-c1cnn(C)c1CCN2C(C)C` [US20240034743, Compound 132] displayed an IC50 of under 1 nM. `COc1cc2c(cc1Nc1ncc(Br)c(Nc3ccc4nccnc4c3NS(C)(=O)=O)n1)-c1cnn(C)c1CCN2CC(C)C` [US20240034743, Compound 133]: the IC50 in experiment [2] is under 1 nM.

With `CCN1CCc2c(cnn2C)-c2cc(Nc3ncc(Br)c(Nc4ccc5nccnc5c4NS(C)(=O)=O)n3)c(OC)cc21` [US20240034743, Compound 139], the IC50 in experiment [2] was under 1 nM.

These data come from BindingDB's records for patent US20240034743 (Qilu Pharmaceutical, 2024).
